Laboratory results: patent publication US9499537B2, “Antiviral pyrrolopyridine derivatives and method for preparing the same” (KOREA RESEARCH INSTITUTE OF CHEMICAL TECHNOLOGY, priority 2011, dated 2016)

test system: MT-4 cells; test: Cytotoxicity test in MT-4 cells (MTT method); format: cell-based; details: human
Protocol: In order to look into the HIV-1 inhibition effects of the compound of the present invention, an in vitro test for HIV-1 inhibition effects was carried out as follows according to a known method (H. Tanaka et al., J. Med. Chem., 1991, 34, 349). MT-4 cells were used as host cells, and the degree of the compound of the present invention inhibiting the cytotoxicity of the virus-infected MT-4 cells was investigated.
First, MT-4 cells were diffused at a concentration of 1×10^4 cell/well to a culture medium, and HIV-1 was inoculated so that the concentration was 500 TCI50 (concentration at which 50% of the cell is infected)/well. Immediately after the inoculation, the cell dispersion was transferred in 100 μL each to a flat microtiter plate in which the sample of the compound of the present invention was placed. The sample was incubated for approximately for 4 to 5 days at […], and the virus suppression effect was determined using an MTT method. In addition, the cytotoxicity was also determined by measuring the survivability of the experimentally virus-infected cells using an MTT method. As a comparative compound, azidothymidine (AZT) and raltegravir were used.

Compound | CC60 (μM) ** : concentration at 50% cell damage with respect to MT-4 cells
Cc1nc2c(c(C)c(C)n2CCC#N)c(-c2ccc(Cl)cc2)c1C(OC(C)(C)C)C(=O)O (stereo not shown) [Example 23, 2-Tert-butoxy-2-(4-(4-chlorophenyl)-1-(2-cyanoethyl)-2,3,6-trimethyl-1H-pyrrolo[2,3-b]pyridin-5-yl)acetic acid] | 25.49 µM
Cc1nc2c(c(C)c(C)n2CCO)c(-c2ccc(Cl)cc2)c1C(OC(C)(C)C)C(=O)O (stereo not shown) [Example 24, 2-Tert-butoxy-2-(4-(4-chlorophenyl)-1-(2-hydroxyethyl)-2,3,6-trimethyl-1H-pyrrolo[2,3-b]pyridin-5-yl)acetic acid] | 75.04 µM
Cc1nc2[nH]c(C)c(C)c2c(-c2ccc(Cl)cc2)c1C(OC(C)(C)C)C(=O)O (stereo not shown) [Example 25, 2-Tert-butoxy-2-(4-(4-chlorophenyl)-2,3,6-trimethyl-1H-pyrrolo[2,3-b]pyridin-5-yl)acetic acid] | 108 µM
Cc1nc2c(c(C)c(C)n2C)c(-c2ccc(Cl)cc2)c1[C@H](OC(C)(C)C)C(=O)O [Example 26, (S)-2-Tert-butoxy-2-(4-(4-chlorophenyl)-1,2,3,6-tetramethyl-1H-pyrrolo[2,3-b]pyridin-5-yl)acetic acid] | 55.84 µM
Cc1nc2c(c(C)c(C)n2C)c(-c2ccc(Cl)cc2)c1[C@@H](OC(C)(C)C)C(=O)O [Example 27, (R)-2-tert-butoxy-2-(4-(4-chlorophenyl)-1,2,3,6-tetramethyl-1H-pyrrolo[2,3-b]pyridin-5-yl)acetic acid] | 29 µM
Cc1nc2c(c(C)c(C)n2CC2CC2)c(-c2ccc(Cl)cc2)c1[C@H](OC(C)(C)C)C(=O)O [Example 28, (S)-2-Tert-butoxy-2-(4-(4-chlorophenyl)-1-(cyclopropylmethyl)-2,3,6-trimethyl-1H-pyrrolo[2,3-b]pyridin-5-yl)acetic acid] | 20.4 µM
Cc1nc2c(c(C)c(C)n2CC2CC2)c(-c2ccc(Cl)cc2)c1[C@@H](OC(C)(C)C)C(=O)O [Example 29, (R)-2-tert-butoxy-2-(4-(4-chlorophenyl)-1-(cyclopropylmethyl)-2,3,6-trimethyl-1H-pyrrolo[2,3-b]pyridin-5-yl)acetic acid] | 100 µM
Cc1nc2c(c(C)c(C)n2CCC#N)c(-c2ccc(Cl)cc2)c1[C@H](OC(C)(C)C)C(=O)O [Example 30, (S)-2-Tert-butoxy-2-(4-(4-chlorophenyl)-1-(2-cyanoethyl)-2,3,6-trimethyl-1H-pyrrolo[2,3-b]pyridin-5-yl)acetic acid] | 30.86 µM
Cc1nc2c(c(C)c(C)n2CCC#N)c(-c2ccc(Cl)cc2)c1[C@@H](OC(C)(C)C)C(=O)O [Example 31, (R)-2-tert-butoxy-2-(4-(4-chlorophenyl)-1-(2-cyanoethyl)-2,3,6-trimethyl-1H-pyrrolo[2,3-b]pyridin-5-yl)acetic acid] | 86.73 µM
CCn1c(C)c(C)c2c(-c3ccc(Cl)cc3)c([C@H](OC(C)(C)C)C(=O)O)c(C)nc21 [Example 32, (S)-2-Tert-butoxy-2-(4-(4-chlorophenyl)-1-(ethyl)-2,3,6-trimethyl-1H-pyrrolo[2,3-b]pyridin-5-yl)acetic acid] | 23.48 µM
CCn1c(C)c(C)c2c(-c3ccc(Cl)cc3)c([C@@H](OC(C)(C)C)C(=O)O)c(C)nc21 [Example 33, (R)-2-tert-butoxy-2-(4-(4-chlorophenyl)-1-(ethyl)-2,3,6-trimethyl-1H-pyrrolo[2,3-b]pyridin-5-yl)acetic acid] | 25.5 µM
Cc1nc2c(ccn2C)c(-c2ccc(Cl)cc2)c1[C@H](OC(C)(C)C)C(=O)O [Example 34, (S)-2-Tert-butoxy-2-(4-(4-chlorophenyl)-1,6-dimethyl-1H-pyrrolo[2,3-b]pyridin-5-yl)acetic acid] | 78 µM
COc1cc(Cn2c(C)c(C)c3c(-c4ccc(Cl)cc4)c(C(OC(C)(C)C)C(=O)O)c(C)nc32)cc(Cl)n1 (stereo not shown) [Example 35, 2-Tert-butoxy-2-(4-(4-chlorophenyl)-1-((2-chloro-6-methoxypyridin-4-yl)methyl)-2,3,6-trimethyl-1H-pyrrolo[2,3-b]pyridin-5-yl)acetic acid] | 14.86 µM
Cc1nc2c(c(C)c(C)n2Cc2ccncc2)c(-c2ccc(Cl)cc2)c1[C@H](OC(C)(C)C)C(=O)O [Example 36, (S)-2-Tert-butoxy-2-(4-(4-chlorophenyl)-1-(pyridin-4-ylmethyl)-2,3,6-trimethyl-1H-pyrrolo[2,3-b]pyridin-5-yl)acetic acid] | 24.49 µM
CCn1c(C)c(C)c2c(-c3ccccc3)c(C(OC(C)(C)C)C(=O)O)c(C)nc21 (stereo not shown) [Example 37, 2-Tert-butoxy-2-(1-ethyl-2,3,6-trimethyl-4-phenyl-1H-pyrrolo[2,3-b]pyridin-5-yl)acetic acid] | 17 µM
CCn1c(C)c(C)c2c(-c3ccc(C)cc3)c(C(OC(C)(C)C)C(=O)O)c(C)nc21 (stereo not shown) [Example 38, 2-Tert-butoxy-2-(1-ethyl-2,3,6-trimethyl-4-(para-tolyl)-1H-pyrrolo[2,3-b]pyridin-5-yl)acetic acid] | 40.34 µM
CCn1c(C)c(C)c2c(-c3ccc(F)cc3)c(C(OC(C)(C)C)C(=O)O)c(C)nc21 (stereo not shown) [Example 39, 2-Tert-butoxy-2-(1-ethyl-4-(4-fluorophenyl)-2,3,6-trimethyl-1H-pyrrolo[2,3-b]pyridin-5-yl)acetic acid] | 78.47 µM
CCn1c(C)c(C)c2c(-c3ccc(C#N)cc3)c(C(OC(C)(C)C)C(=O)O)c(C)nc21 (stereo not shown) [Example 40, 2-Tert-butoxy-2-(4-(4-cyanophenyl)-1-ethyl-2,3,6-trimethyl-1H-pyrrolo[2,3-b]pyridin-5-yl)acetic acid] | 91.58 µM
CCn1c(C)c(C)c2c(-c3ccc(OC)cc3)c(C(OC(C)(C)C)C(=O)O)c(C)nc21 (stereo not shown) [Example 41, 2-(Tert-butoxy)-2-(1-ethyl-4-(4-methoxyphenyl)-2,3,6-trimethyl-1H-pyrrolo[2,3-b]pyridin-5-yl)acetic acid] | 31.49 µM
Cc1nc2c(c(C)c(C)n2Cc2cccs2)c(-c2ccc(Cl)cc2)c1[C@H](OC(C)(C)C)C(=O)O [Example 42, (S)-2-(Tert-butoxy)-2-(4-(4-chlorophenyl)-2,3,6-trimethyl-1-(thiophen-2-ylmethyl)-1H-pyrrolo[2,3-b]pyridin-5-yl)acetic acid] | 20.54 µM
Cc1nc2c(c(C)c(C)n2Cc2ccsc2)c(-c2ccc(Cl)cc2)c1[C@H](OC(C)(C)C)C(=O)O [Example 43, (S)-2-(Tert-butoxy)-2-(4-(4-chlorophenyl)-2,3,6-trimethyl-1-(thiophen-3-ylmethyl)-1H-pyrrolo[2,3-b]pyridin-5-yl)acetic acid] | 17.74 µM
Cc1nc2c(c(C)c(C)n2Cc2ccco2)c(-c2ccc(Cl)cc2)c1[C@H](OC(C)(C)C)C(=O)O [Example 44, (S)-2-(Tert-butoxy)-2-(4-(4-chlorophenyl)-1-(furan-2-ylmethyl)-2,3,6-trimethyl-1H-pyrrolo[2,3-b]pyridin-5-yl)acetic acid] | 18.06 µM
Cc1nc2c(c(C)c(C)n2CC2(C#N)CC2)c(-c2ccc(Cl)cc2)c1[C@H](OC(C)(C)C)C(=O)O [Example 47, (S)-2-(tert-butoxy)-2-(4-(4-chlorophenyl)-1-((1-cyanocyclopropyl)methyl)-2,3,6-trimethyl-1H-pyrrolo[2,3-b]pyridin-5-yl)acetic acid] | 16.64 µM
Cc1nc2c(c(C)c(C)n2CC2CCC2)c(-c2ccc(Cl)cc2)c1[C@H](OC(C)(C)C)C(=O)O [Example 48, (S)-2-(Tert-butoxy)-2-(4-(4-chlorophenyl)-1-(cyclobutylmethyl)-2,3,6-trimethyl-1H-pyrrolo[2,3-b]pyridin-5-yl)acetic acid] | 14.22 µM
Cc1nc2c(c(C)c(C)n2CC2CCCC2)c(-c2ccc(Cl)cc2)c1[C@H](OC(C)(C)C)C(=O)O [Example 49, (S)-2-(Tert-butoxy)-2-(4-(4-chlorophenyl)-1-(cyclopentylmethyl)-2,3,6-trimethyl-1H-pyrrolo[2,3-b]pyridin-5-yl)acetic acid] | 15.3 µM
Cc1nc2c(c(C)c(C)n2CC2CCCCC2)c(-c2ccc(Cl)cc2)c1[C@H](OC(C)(C)C)C(=O)O [Example 50, (S)-2-(Tert-butoxy)-2-(4-(4-chlorophenyl)-1-(cyclohexylmethyl)-2,3,6-trimethyl-1H-pyrrolo[2,3-b]pyridin-5-yl)acetic acid] | 10.32 µM
Cc1nc2c(c(C)c(C)n2CC(=O)N(C)C)c(-c2ccc(Cl)cc2)c1[C@H](OC(C)(C)C)C(=O)O [Example 51, (S)-2-(Tert-butoxy)-2-(4-(4-chlorophenyl)-1-(2-(dimethylamino)-2-oxoethyl)-2,3,6-trimethyl-1H-pyrrolo[2,3-b]pyridin-5-yl)acetic acid] | 96.68 µM
Cc1nc2c(c(C)c(C)n2CC2(O)CC2)c(-c2ccc(Cl)cc2)c1[C@H](OC(C)(C)C)C(=O)O [Example 52] | 34.33 µM
